Measured values from patent US20260285850A1, “SUBSTITUTED OXAZOLIDINONES AND IMIDAZOLINONES AS HERBICIDES” (FMC CORPORATION, priority 2023, published 2026).

How the values were obtained:
Assay type in all cases: in vivo
[1] = system: galium (catchweed bedstraw, Galium aparine); assay: Test A postemergence application, visual injury rating 0-100; conditions: Postemergence, 10 days; for Galium plant response rating (0 to 100 scale): 0 is no effect, 100 is complete control
Summary of the method: (§1)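 Plants were grown in a loam soil-sand blend and treated with test chemical in a non-phytotoxic solvent mixture containing surfactant, either sprayed on soil preemergence or applied postemergence to 2-10 cm plants. After 10 days in a greenhouse, injury was scored visually against untreated controls, 0 meaning no effect and 100 complete control.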

[2] = system: ryegrass, Italian (italian ryegrass, Lolium multiflorum); assay: as above; conditions: Postemergence, 10 days; for Ryegrass, Italian plant response rating (0 to 100 scale): 0 is no effect, 100 is complete control
Summary of the method: as §1

[3] = system: barnyardgrass (Echinochloa crus-galli); assay: as above; conditions: Postemergence, 10 days; for Barnyardgrass plant response rating (0 to 100 scale): 0 is no effect, 100 is complete control
Summary of the method: as §1

[4] = system: palmer (palmer amaranth, palmer pigweed, Amaranthus palmeri); assay: as above; conditions: Postemergence, 10 days; for Amaranth, Palmer / Pigweed, Palmer plant response rating (0 to 100 scale): 0 is no effect, 100 is complete control
Summary of the method: as §1

[5] = system: blackgrass (Alopecurus myosuroides); assay: as above; conditions: Postemergence, 10 days; for Blackgrass plant response rating (0 to 100 scale): 0 is no effect, 100 is complete control
Summary of the method: as §1

[6] = system: foxtail, giant (giant foxtail, Setaria faberi); assay: as above; conditions: 10 days; for Foxtail, Giant plant response rating (0 to 100 scale): 0 is no effect, 100 is complete control
Summary of the method: as §1

[7] = system: horseweed (Erigeron canadensis); assay: as above; conditions: Postemergence, 1000 g ai/ha, 0 to 100 scale, 10 days
Summary of the method: as §1

[8] = system: ragweed (common ragweed, Ambrosia artemisiifolia); assay: as above; conditions: Postemergence, 10 days; for Ragweed plant response rating (0 to 100 scale): 0 is no effect, 100 is complete control
Summary of the method: as §1

kochia (Bassia scoparia) [9] = assay: as above; conditions: Postemergence, 10 days; for Kochia plant response rating (0 to 100 scale): 0 is no effect, 100 is complete control
Summary of the method: as §1

[10] = system: ryegrass, Italian (italian ryegrass, Lolium multiflorum); assay: Test A preemergence soil spray, visual injury rating 0-100; conditions: 10 days, 0 = no effect, 100 = complete control
Summary of the method: as §1

[11] = system: barnyardgrass (Echinochloa crus-galli); assay: as above; conditions: 10 days, 0 = no effect, 100 = complete control
Summary of the method: as §1

[12] = system: palmer (palmer amaranth, palmer pigweed, Amaranthus palmeri); assay: as above; conditions: 10 days, 0 = no effect, 100 = complete control
Summary of the method: as §1

[13] = system: blackgrass (Alopecurus myosuroides); assay: as above; conditions: 10 days, 0 = no effect, 100 = complete control
Summary of the method: as §1

[14] = system: foxtail, giant (giant foxtail, Setaria faberi); assay: as above; conditions: 10 days, 0 = no effect, 100 = complete control
Summary of the method: as §1

[15] = system: ragweed (common ragweed, Ambrosia artemisiifolia); assay: as above; conditions: 10 days, 0 = no effect, 100 = complete control
Summary of the method: as §1

kochia (Bassia scoparia) [16] = assay: as above; conditions: 10 days, 0 = no effect, 100 = complete control
Summary of the method: as §1

[17] = system: barnyardgrass (Echinochloa crusgalli); assay: Test B flooded paddy test, visual plant response rating 0-100; conditions: 250 g ai/ha, Flood, applied to paddy water, evaluated after 13 days
Summary of the method: (§2)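 Visual evaluation after 13 days. Water-applied treatment, 3 cm flood depth held constant, plants at 2-leaf stage at treatment.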

rice (Oryza sativa) = assay: as above; conditions: 250 g ai/ha, Flood, applied to paddy water, evaluated after 13 days
Summary of the method: as §2

[18] = system: sedge, umbrella (small-flower umbrella sedge, Cyperus difformis); assay: as above; conditions: 250 g ai/ha, Flood, applied to paddy water, evaluated after 13 days
Summary of the method: as §2

[19] = system: ducksalad (Heteranthera limosa); assay: as above; conditions: 250 g ai/ha, Flood, applied to paddy water, evaluated after 13 days
Summary of the method: as §2

[20] = system: oat, wild (wild oat, Avena fatua); assay: Test A postemergence application, visual injury rating 0-100; conditions: Postemergence, 10 days, 0 is no effect, 100 is complete control
Summary of the method: as §1

[21] = system: wheat (Triticum aestivum); assay: as above; conditions: Postemergence, 10 days, 0 is no effect, 100 is complete control
Summary of the method: as §1

soybean (Glycine max) [22] = assay: as above; conditions: Postemergence, 10 days, 0 is no effect, 100 is complete control
Summary of the method: as §1

corn (Zea mays) [23] = assay: as above; conditions: Postemergence, 10 days, 0 is no effect, 100 is complete control
Summary of the method: as §1

[24] = system: oat, wild (wild oat, Avena fatua); assay: Test A preemergence soil spray, visual injury rating 0-100; conditions: 10 days, 0 = no effect, 100 = complete control
Summary of the method: as §1

[25] = system: wheat (Triticum aestivum); assay: as above; conditions: 10 days, 0 = no effect, 100 = complete control
Summary of the method: as §1

soybean (Glycine max) [26] = assay: as above; conditions: 10 days, 0 = no effect, 100 = complete control
Summary of the method: as §1

corn (Zea mays) [27] = assay: as above; conditions: 10 days, 0 = no effect, 100 = complete control
Summary of the method: as §1

CSCCOC(=O)[C@@H]1C=C[C@H](NC(=O)C2(C)CN(c3cc(F)cc(F)c3)C(=O)O2)C1 (stereo partly drawn) [Compound 48, 2-(Methylthio)ethyl (1S,4R)-4-[[[3-(3,5-difluorophenyl)-5-methyl-2-oxo-5-oxazolidinyl]carbonyl]amino]-2-cyclopentene-1-carboxylate]
80: Galium plant response rating ([1]; 1000 g ai/ha, 0 to 100 scale) | Plant response rating, Sedge, Umbrella (0 to 100 scale, 0 is no effect and 100 is complete control) [18]
65: Plant response rating, Rice (0 to 100 scale, 0 is no effect and 100 is complete control) (rice (Oryza sativa))
100: Blackgrass plant response rating ([5]; 1000 g ai/ha, 0 to 100 scale) | Ryegrass, Italian plant response rating (0 to 100 scale) ([10]; 1000 g ai/ha) | Barnyardgrass plant response rating (0 to 100 scale) ([11]; 1000 g ai/ha) | Amaranth, Palmer / Pigweed, Palmer plant response rating (0 to 100 scale) ([12]; 1000 g ai/ha) | Foxtail, Giant plant response rating (0 to 100 scale) ([14]; 1000 g ai/ha) | Kochia plant response rating (0 to 100 scale) (kochia (Bassia scoparia) [16]; 1000 g ai/ha)
70: Horseweed plant response rating [7] | Ragweed plant response rating ([8]; 1000 g ai/ha, 0 to 100 scale) | Kochia plant response rating (kochia (Bassia scoparia) [9]; 1000 g ai/ha, 0 to 100 scale) | Plant response rating, Barnyardgrass (0 to 100 scale, 0 is no effect and 100 is complete control) [17] | Plant response rating, Ducksalad (0 to 100 scale, 0 is no effect and 100 is complete control) [19]
90: Ryegrass, Italian plant response rating ([2]; 1000 g ai/ha, 0 to 100 scale) | Barnyardgrass plant response rating ([3]; 1000 g ai/ha, 0 to 100 scale) | Amaranth, Palmer plant response rating ([4]; 1000 g ai/ha, 0 to 100 scale) | Foxtail, Giant plant response rating ([6]; 1000 g ai/ha, 0 to 100 scale) | Blackgrass plant response rating (0 to 100 scale) ([13]; 1000 g ai/ha) | Ragweed plant response rating (0 to 100 scale) ([15]; 1000 g ai/ha)

CC1(C(=O)NC2C=CC(C(=O)OCCS(C)(=O)=O)C2)CN(c2cc(F)cc(F)c2)C(=O)O1 (stereo not shown) [Compound 49]
55: Plant response rating, Rice (0 to 100 scale, 0 is no effect and 100 is complete control) (rice (Oryza sativa))
70: Galium plant response rating (0 to 100 scale) ([1]; 125 g ai/ha) | Ragweed plant response rating (0 to 100 scale) ([8]; 125 g ai/ha) | Ragweed plant response rating (0 to 100 scale) ([8]; 500 g ai/ha) | Kochia plant response rating (0 to 100 scale) (kochia (Bassia scoparia) [9]; 125 g ai/ha) | Blackgrass plant response rating (0 to 100 scale) ([13]; 125 g ai/ha)
95: Plant response rating, Sedge, Umbrella (0 to 100 scale, 0 is no effect and 100 is complete control) [18]
80: Galium plant response rating (0 to 100 scale) ([1]; 500 g ai/ha) | Ryegrass, Italian plant response rating (0 to 100 scale) ([2]; 125 g ai/ha) | Kochia plant response rating (0 to 100 scale) (kochia (Bassia scoparia) [9]; 500 g ai/ha) | Ryegrass, Italian plant response rating (0 to 100 scale) ([10]; 125 g ai/ha) | Oat, Wild plant response rating (0 to 100 scale) ([24]; 125 g ai/ha) | Blackgrass plant response rating (0 to 100 scale) ([13]; 500 g ai/ha) | Soybean plant response rating (0 to 100 scale) (soybean (Glycine max) [26]; 125 g ai/ha) | Corn plant response rating (0 to 100 scale) (corn (Zea mays) [27]; 125 g ai/ha) | Plant response rating, Barnyardgrass (0 to 100 scale, 0 is no effect and 100 is complete control) [17]
40: Ragweed plant response rating (0 to 100 scale) ([15]; 125 g ai/ha)
90: Ryegrass, Italian plant response rating (0 to 100 scale) ([2]; 500 g ai/ha) | Oat, Wild plant response rating (0 to 100 scale) ([20]; 125 g ai/ha) | Oat, Wild plant response rating (0 to 100 scale) ([20]; 500 g ai/ha) | Wheat plant response rating (0 to 100 scale) ([21]; 125 g ai/ha) | Wheat plant response rating (0 to 100 scale) ([21]; 500 g ai/ha) | Amaranth, Palmer / Pigweed, Palmer plant response rating (0 to 100 scale) ([4]; 125 g ai/ha) | Blackgrass plant response rating (0 to 100 scale) ([5]; 125 g ai/ha) | Foxtail, Giant plant response rating (0 to 100 scale) ([6]; 125 g ai/ha) | Foxtail, Giant plant response rating (0 to 100 scale) ([6]; 500 g ai/ha) | Soybean plant response rating (0 to 100 scale) (soybean (Glycine max) [22]; 125 g ai/ha) | Soybean plant response rating (0 to 100 scale) (soybean (Glycine max) [22]; 500 g ai/ha) | Barnyardgrass plant response rating (0 to 100 scale) ([11]; 125 g ai/ha) | Oat, Wild plant response rating (0 to 100 scale) ([24]; 500 g ai/ha) | Wheat plant response rating (0 to 100 scale) ([25]; 125 g ai/ha) | Amaranth, Palmer plant response rating (0 to 100 scale) ([12]; 125 g ai/ha) | Foxtail, Giant plant response rating (0 to 100 scale) ([14]; 125 g ai/ha) | Soybean plant response rating (0 to 100 scale) (soybean (Glycine max) [26]; 500 g ai/ha) | Corn plant response rating (0 to 100 scale) (corn (Zea mays) [27]; 500 g ai/ha) | Ragweed plant response rating (0 to 100 scale) ([15]; 500 g ai/ha) | Kochia plant response rating (0 to 100 scale) (kochia (Bassia scoparia) [16]; 125 g ai/ha) | Plant response rating, Ducksalad (0 to 100 scale, 0 is no effect and 100 is complete control) [19]
100: Barnyardgrass plant response rating (0 to 100 scale) ([3]; 125 g ai/ha) | Barnyardgrass plant response rating (0 to 100 scale) ([3]; 500 g ai/ha) | Amaranth, Palmer / Pigweed, Palmer plant response rating (0 to 100 scale) ([4]; 500 g ai/ha) | Blackgrass plant response rating (0 to 100 scale) ([5]; 500 g ai/ha) | Corn plant response rating (0 to 100 scale) (corn (Zea mays) [23]; 125 g ai/ha) | Corn plant response rating (0 to 100 scale) (corn (Zea mays) [23]; 500 g ai/ha) | Ryegrass, Italian plant response rating (0 to 100 scale) ([10]; 500 g ai/ha) | Barnyardgrass plant response rating (0 to 100 scale) ([11]; 500 g ai/ha) | Wheat plant response rating (0 to 100 scale) ([25]; 500 g ai/ha) | Amaranth, Palmer plant response rating (0 to 100 scale) ([12]; 500 g ai/ha) | Foxtail, Giant plant response rating (0 to 100 scale) ([14]; 500 g ai/ha) | Kochia plant response rating (0 to 100 scale) (kochia (Bassia scoparia) [16]; 500 g ai/ha)
